Assay results as given in EP0048614B1, “1-N-acylated and 1-N-alkylated derivatives of 4-0-substituted -2-deoxystreptamine aminoglycosides” (ELI LILLY AND COMPANY, priority 1980, dated 1982).
Converted amounts (≈) assume the structure as drawn.

How the values were obtained:
B. subtilis X12 = assay: Bioautography of thin layer chromatography plate; assay type: cell-based; details: TLC plate of the reaction mixture against B. subtilis X12
Protocol: Apramycin (54 mg, 0.1 mmol) was dissolved in water (1 ml). Zinc acetate dihydrate (100 mg, 0.4 mmol) was added to this solution and the mixture was briefly sonicated to disperse crystals of zinc acetate. The ' mixture was diluted with dimethylformamide (5 ml), 1-iodo-n-butane (0.115 ml), 1 mmol) was added and this reaction mixture was stirred at room temperature for 4 days.

[1] = tested on: Pseudomonas aeruginosa X528; assay: MIC, standard agar dilution test; assay type: cell-based; details: Pseudomonas aeruginosa X528; agar dilution; read-out: Minimum Inhibitory Concentration
Excerpt: (§1) The antibacterial activity of the deprotected compounds of this invention is illustrated by the following in vitro and in vivo test data obtained with representative compounds. In Table I, the minimum inhibitory concentration (MIC) for representative compounds against a wide range of gram-positive and gram-negative bacteria is presented. The MIC values were obtained by the standard agar dilution test.

Proteus morganii PR15 = assay: MIC, standard agar dilution test; assay type: cell-based; details: Morganella morganii; Proteus morganii PR15; agar dilution; read-out: Minimum Inhibitory Concentration
Excerpt: as §1

[2] = tested on: Staphylococcus epidermidis EPI1; assay: MIC, standard agar dilution test; assay type: cell-based; details: Staphylococcus epidermidis EPI1; agar dilution; read-out: Minimum Inhibitory Concentration
Excerpt: as §1

[3] = tested on: Pseudomonas aeruginosa X239; assay: MIC, standard agar dilution test; assay type: cell-based; details: Pseudomonas aeruginosa X239; agar dilution; read-out: Minimum Inhibitory Concentration
Excerpt: as §1

[4] = tested on: Staphylococcus aureus X400; assay: MIC, standard agar dilution test; assay type: cell-based; details: Staphylococcus aureus X400, read-out: Minimum Inhibitory Concentration
Excerpt: as §1

Serratia marcescens X99 = assay: MIC, standard agar dilution test; assay type: cell-based; details: Serratia marcescens X99, read-out: Minimum Inhibitory Concentration
Excerpt: as §1

Enterobacter cloacae EB5 = assay: MIC, standard agar dilution test; assay type: cell-based; details: Enterobacter cloacae EB5; agar dilution; read-out: Minimum Inhibitory Concentration
Excerpt: as §1

[5] = tested on: Streptococcus pneumoniae Park I; assay: MIC, standard agar dilution test; assay type: cell-based; details: Streptococcus pneumoniae Park I; agar dilution; read-out: Minimum Inhibitory Concentration
Excerpt: as §1

[6] = tested on: Enterobacter aerogenes X68; assay: MIC, standard agar dilution test; assay type: cell-based; details: Klebsiella aerogenes, Enterobacter aerogenes X68, read-out: Minimum Inhibitory Concentration
Excerpt: as §1

Escherichia coli N10 = assay: MIC, standard agar dilution test; assay type: cell-based; details: Escherichia coli, N10, Escherichia coli N10; agar dilution; read-out: Minimum Inhibitory Concentration
Excerpt: as §1

[7] = tested on: Salmonella typhimurium 1335; assay: MIC, standard agar dilution test; assay type: cell-based; details: Salmonella enterica; Salmonella typhimurium 1335; agar dilution; read-out: Minimum Inhibitory Concentration
Excerpt: as §1

[8] = tested on: Salmonella heidelberg X514; assay: MIC, standard agar dilution test; assay type: cell-based; details: Salmonella enterica; Salmonella heidelberg X514; agar dilution; read-out: Minimum Inhibitory Concentration
Excerpt: as §1

[9] = tested on: Bordetella bronchiseptica 16; assay: MIC, standard agar dilution test; assay type: cell-based; details: Bordetella bronchiseptica 16; agar dilution; read-out: Minimum Inhibitory Concentration
Excerpt: as §1

Escherichia coli EC14 = assay: MIC, standard agar dilution test; assay type: cell-based; details: Escherichia coli EC14; agar dilution; read-out: Minimum Inhibitory Concentration
Excerpt: as §1

Escherichia coli TEM = assay: MIC, standard agar dilution test; assay type: cell-based; details: read-out: Minimum Inhibitory Concentration
Excerpt: as §1

[10] = tested on: Klebsiella pneumoniae X26; assay: MIC, standard agar dilution test; assay type: cell-based; details: Klebsiella pneumoniae X26; agar dilution; read-out: Minimum Inhibitory Concentration
Excerpt: as §1

[11] = tested on: Streptococcus pyogenes C203; assay: MIC, standard agar dilution test; assay type: cell-based; details: Streptococcus pyogenes C203; agar dilution; read-out: Minimum Inhibitory Concentration
Excerpt: as §1

[12] = tested on: Citrobacter freundii CF17; assay: MIC, standard agar dilution test; assay type: cell-based; details: Citrobacter freundii CF17; agar dilution; read-out: Minimum Inhibitory Concentration
Excerpt: as §1

[13] = tested on: Hemophilus influenzae C.L.; assay: MIC, standard agar dilution test; assay type: cell-based; details: Haemophilus influenzae, Hemophilus influenzae C.L., read-out: Minimum Inhibitory Concentration
Excerpt: as §1

[14] = tested on: Pseudomonas aeruginosa Ps18; assay: MIC, standard agar dilution test; assay type: cell-based; details: Pseudomonas aeruginosa Ps18; agar dilution; read-out: Minimum Inhibitory Concentration
Excerpt: as §1

[15] = tested on: Enterobacter cloacae 265A; assay: MIC, standard agar dilution test; assay type: cell-based; details: Enterobacter cloacae 265A; agar dilution; read-out: Minimum Inhibitory Concentration
Excerpt: as §1

[16] = tested on: Staphylococcus aureus X1.1; assay: MIC, standard agar dilution test; assay type: cell-based; details: Staphylococcus aureus X1.1; agar dilution; read-out: Minimum Inhibitory Concentration
Excerpt: as §1

Shigella sonnei N9 = assay: MIC, standard agar dilution test; assay type: cell-based; details: read-out: Minimum Inhibitory Concentration
Excerpt: as §1

Proteus rettgeri C24 = assay: MIC, standard agar dilution test; assay type: cell-based; details: Providencia rettgeri; Proteus rettgeri C24; agar dilution; read-out: Minimum Inhibitory Concentration
Excerpt: as §1

[17] = tested on: Streptococcus group D 9960; assay: MIC, standard agar dilution test; assay type: cell-based; details: D9960; Streptococcus group D 9960; agar dilution; read-out: Minimum Inhibitory Concentration
Excerpt: as §1

Serratia marcescens SE3 = assay: MIC, standard agar dilution test; assay type: cell-based; details: Serratia marcescens SE3; agar dilution; read-out: Minimum Inhibitory Concentration
Excerpt: as §1

[18] = tested on: Enterobacter aerogenes EB17; assay: MIC, standard agar dilution test; assay type: cell-based; details: Klebsiella aerogenes; Enterobacter aerogenes EB17; agar dilution; read-out: Minimum Inhibitory Concentration
Excerpt: as §1

Proteus rettgeri PR7 = assay: MIC, standard agar dilution test; assay type: cell-based; details: Providencia rettgeri, Proteus rettgeri PR7, read-out: Minimum Inhibitory Concentration
Excerpt: as §1

[19] = tested on: Staphylococcus aureus S13E; assay: MIC, standard agar dilution test; assay type: cell-based; details: read-out: Minimum Inhibitory Concentration
Excerpt: as §1

[20] = tested on: Enterobacter aerogenes C32; assay: MIC, standard agar dilution test; assay type: cell-based; details: Klebsiella aerogenes; Enterobacter aerogenes C32; agar dilution; read-out: Minimum Inhibitory Concentration
Excerpt: as §1

[21] = tested on: Staphylococcus epidermidis EPI2; assay: MIC, standard agar dilution test; assay type: cell-based; details: Staphylococcus epidermidis EPI2; agar dilution; read-out: Minimum Inhibitory Concentration
Excerpt: as §1

Hemophilus influenzae 76 = assay: MIC, standard agar dilution test; assay type: cell-based; details: Haemophilus influenzae, Hemophilus influenzae 76, read-out: Minimum Inhibitory Concentration
Excerpt: as §1

Proteus inconstans PR33 = assay: MIC, standard agar dilution test; assay type: cell-based; details: Providencia alcalifaciens; Proteus inconstans PR33; agar dilution; read-out: Minimum Inhibitory Concentration
Excerpt: as §1

[22] = tested on: Streptococcus group D X66; assay: MIC, standard agar dilution test; assay type: cell-based; details: DX66; Streptococcus group D X66; agar dilution; read-out: Minimum Inhibitory Concentration
Excerpt: as §1

[23] = tested on: Staphylococcus aureus V41; assay: MIC, standard agar dilution test; assay type: cell-based; details: Staphylococcus aureus V41; agar dilution; read-out: Minimum Inhibitory Concentration
Excerpt: as §1

[24] = tested on: Klebsiella pneumoniae KAE; assay: MIC, standard agar dilution test; assay type: cell-based; details: Klebsiella pneumoniae KAE; agar dilution; read-out: Minimum Inhibitory Concentration
Excerpt: as §1

[25] = tested on: Staphylococcus aureus 3055; assay: Subcutaneous therapy of experimental bacterial infection in mice (ED50); assay type: in vivo; details: Staphylococcus aureus, 3055, sc; mg/kg × 2 subcutaneous doses at 1 and 5 hours post infection; mice challenged with 1,794 LD50's; read-out: Effective Dose (ED50)
Protocol: Table II illustrates the effective dose (ED50, the effective dose to protect 50 percent of the test animals) for representative compounds of this invention against an experimental bacterial infection in mice.
The ED50 values were determined as described by W. E. Wick et al., Journal of Bacteriology, 81 [No. 2], 233-235 (1961).

Compound: CCCCNC1CC(N)C(O)C(O)C1OC1OC2C(CC1N)OC(OC1OC(CO)C(N)C(O)C1O)C(NC)C2O (stereo not drawn) [3-N-(n-butyl)apramycin]
- zone of inhibition (bioautography) (B. subtilis X12): not

Compound: NCC[C@H](O)C(=O)N[C@@H]1C[C@H](N)[C@@H](O[C@H]2O[C@H](CN)[C@@H](O)C[C@H]2N)[C@H](O)[C@H]1O [Test Compound 5, 1-N-(S-γ-amino-α-hydroxybutyryl)nebramine]
- MIC [1]: 64 µg/mL (≈ 157 µM)
- MIC (Proteus morganii PR15): 32 µg/mL (≈ 78.5 µM)
- MIC [2]: 8 µg/mL (≈ 19.6 µM)
- MIC [3]: 32 µg/mL (≈ 78.5 µM)
- MIC [4]: 64 µg/mL (≈ 157 µM)
- MIC (Serratia marcescens X99): 8 µg/mL (≈ 19.6 µM)
- MIC (Enterobacter cloacae EB5): 16 µg/mL (≈ 39.3 µM)
- MIC [5]: 16 µg/mL (≈ 39.3 µM)
- MIC [6]: 8 µg/mL (≈ 19.6 µM)
- MIC (Escherichia coli N10): 8 µg/mL (≈ 19.6 µM)
- MIC [7]: 8 µg/mL (≈ 19.6 µM)
- MIC [8]: 16 µg/mL (≈ 39.3 µM)
- MIC [9]: 32 µg/mL (≈ 78.5 µM)
- MIC (Escherichia coli EC14): 16 µg/mL (≈ 39.3 µM)
- MIC (Escherichia coli TEM): 2 µg/mL (≈ 4.91 µM)
- MIC [10]: 4 µg/mL (≈ 9.82 µM)
- MIC [11]: 16 µg/mL (≈ 39.3 µM)
- MIC [12]: 16 µg/mL (≈ 39.3 µM)
- MIC [13]: 16 µg/mL (≈ 39.3 µM)
- MIC [14]: 32 µg/mL (≈ 78.5 µM)
- MIC [15]: 32 µg/mL (≈ 78.5 µM)
- MIC [16]: 8 µg/mL (≈ 19.6 µM)
- MIC (Shigella sonnei N9): 16 µg/mL (≈ 39.3 µM)
- MIC (Proteus rettgeri C24): 8 µg/mL (≈ 19.6 µM)
- MIC [17]: > 128 µg/mL
- MIC (Serratia marcescens SE3): 16 µg/mL (≈ 39.3 µM)
- MIC [18]: 8 µg/mL (≈ 19.6 µM)
- MIC (Proteus rettgeri PR7): 8 µg/mL (≈ 19.6 µM)
- MIC [19]: 8 µg/mL (≈ 19.6 µM)
- MIC [20]: 8 µg/mL (≈ 19.6 µM)
- MIC [21]: 4 µg/mL (≈ 9.82 µM)
- MIC (Hemophilus influenzae 76): 16 µg/mL (≈ 39.3 µM)
- MIC (Proteus inconstans PR33): 8 µg/mL (≈ 19.6 µM)
- MIC [22]: > 128 µg/mL
- MIC [23]: 8 µg/mL (≈ 19.6 µM)
- MIC [24]: 8 µg/mL (≈ 19.6 µM)

Compound: NCC[C@H](O)C(=O)N[C@@H]1C[C@H](N)[C@@H](O[C@H]2O[C@H](CN)[C@@H](O)C[C@H]2N)[C@H](O)[C@H]1O
- ED50 [25]: 8.75 mg/kg

Compound: CCCCNC1CC(N)C(OC2OC3C(CC2N)OC(OC2OC(CO)C(N)C(O)C2O)C(NC)C3O)C(O)C1O (stereo not drawn) [1-N-(n-butyl)apramycin]
- zone of inhibition (bioautography) (B. subtilis X12): good zone of inhibition
